Activity and inhibition data for four compounds are collected here from ChEMBL document CHEMBL1155576, “Bioactive carotanes from Trichoderma virens” (2000).

Broadly, the inhibition is the percentage by which the read-out fell short of the control.

The source made the active and inactive calls. The calls are words filed in the database; no cut-off is given here.

Holding throughout (assay type): functional
The subject of experiment [1] is Triticum aestivum. Briefly: Inhibition of etiolated wheat coleoptile growth at 10^-4 M relative to control.
Experiment [2] has as its system Triticum aestivum. Briefly: Inhibition of etiolated wheat coleoptile growth at 10^-3 M relative to control.
Experiment [3] relates to Triticum aestivum. The experiment in a line: Inhibition of etiolated wheat coleoptile growth at 10^-5 M relative to control.

For the compound `CC(C)(O)[C@@]1(O)[C@@H]2CCC(CO)=CC[C@@]2(C)C[C@@H]1O`, the result in the experiment on Triticum aestivum [1], in the experiment on Triticum aestivum [2] and with Triticum aestivum [3] was inactive. Take `CC(C)[C@@]1(O)[C@@H]2CCC(CO)=CC[C@@]2(C)C[C@@H]1O` [TRICHOCARANE B]: in the experiment on Triticum aestivum [1], 100 µM produced 40% inhibition. The compound also came in with an inhibition at 10 µM in the experiment on Triticum aestivum [3] of 19%. Take `CC(C)[C@@]1(O)[C@@H]2CC[C@@]3(C)O[C@H]3C[C@@]2(C)C[C@@H]1O` [TRICHOCARANE A]: in the experiment with Triticum aestivum [1], testing at 100 µM gave an inhibition of 40%.

`CC(C)[C@@]1(O)[C@@H]2CCC(CO)CC[C@@]2(C)C[C@@H]1O` (some centres not stated) [TRICHOCARANE C] gave an inhibition at 1000 µM with Triticum aestivum [2] of 86%.
